7 compounds from publication PMC6832696 (Viruses, 2019) can be followed below.

In series [1] the test system is HIV-1. The following applies: HIV-1, TZM-bl cells, 24 h.
Series [2] is described as follows: Toxicity in TZM-bl cells, Cell Tox Green (CTxG) assay (CC50). The following applies: human, mock-infected TZM-bl cells.
For series [3], the system named is HIV-1. Description: microbe, parasite or virus in culture. To be noted: Human immunodeficiency virus 1, TZM-bl, 24 h, read-out: EC50-2 (reporter protein expression).
In series [4] the test system is FLUAV-GFP.
Series [5] relates to FLUAV-GFP. Briefly: microbe, parasite or virus in culture. To be noted: Influenza A virus, RPE, read-out: Viability of FLUAV-GFP-infected cells (%).
Series [6] concerns RVFV-RFP. To be noted: RPE cells, fluorescent microscopy and CTG assay.
For series [7], the system named is RVFV-RFP. Description: microbe, parasite or virus in culture. To be noted: Rift Valley fever virus, RPE, 24 h, read-out: EC50-2 (reporter protein expression).
A short description of the next series: in vitro. The following applies: human.
Series [8] concerns EV1. Description: EV1 production in RPE cells, plaque assay on A549-Npro cells. It is filed as cell-based, echovirus 1. To be noted: obatoclax 0.37 μM, emetine 0.12 μM, homoharringtonine 0.12 μM; titrated on A549-Npro cells.
The test system of the next series is RVFV. Briefly: microbe, parasite or virus in culture. Format: cell-based. To be noted: Rift Valley fever virus, RPE, 24 h, read-out: EC50-1 (CTG assay).
In series [9] the test system is HSV-2. Description: microbe, parasite or virus in culture. To be noted: Human alphaherpesvirus 2, RPE, 72 h, read-out: EC50-1 (CTG assay).
Another series concerns FLUAV. Description: microbe, parasite or virus in culture. Format: cell-based. The following applies: Influenza A virus, RPE, 24 h, read-out: EC50-1 (CTG assay).
Series [10] concerns HSV-2. Description: HSV-2 production in RPE cells, plaque assay on A549-Npro cells. Format: cell-based, herpes simplex virus type 2. The following applies: 0.12 μM obatoclax, 0.04 μM emetine, 0.37 μM niclosamide, 0.37 μM ganciclovir; titrated on A549-Npro cells.
For series [11], the system named is HMPV-GFP. Briefly: microbe, parasite or virus in culture. To be noted: human metapneumovirus, RPE, 96 h, read-out: EC50-2 (reporter protein expression).
The subject of series [12] is FLUAV-GFP. Description: microbe, parasite or virus in culture. The following applies: Influenza A virus, RPE, 24 h, read-out: EC50-2 (reporter protein expression).
The test system of series [13] is EV1.
Series [14] has as its system EV1. Description: microbe, parasite or virus in culture. To be noted: Enterovirus B, RPE, 48 h, read-out: EC50-1 (CTG assay).
In series [15] the test system is HSV-2.
For series [16], the system named is HMPV-GFP.
Series [17] in a line: Drug combination experiment: viability of mock-infected RPE cells (CTG). The following applies: human.

Like-named read-outs stand apart in the source and are kept apart here.

Turning to `Cc1c(-c2ccc(-c3ccccc3F)cc2)nc2ccc(F)cc2c1C(=O)O` [Brequinar], the “SI (CC50/EC50)” value in the series on HIV-1 [1] and in the series with HIV-1 [1] (listed as brequinar) was greater than 750 each time. For the same compound, in series [2], the CC50 at 24 h is greater than 30000 nM. In addition, the EC50 in the series on HIV-1 [3] was determined as 40 ± 10 nM.
`CC[C@H]1CN2CCc3cc(OC)c(OC)cc3[C@@H]2C[C@@H]1C[C@H]1NCCc2cc(OC)c(OC)cc21` [Emetine]: the “Initial screening: FLUAV-mediated GFP expression” value in the series with FLUAV-GFP [4] is “lowered GFP expression without detectable cytotoxicity”. Moreover, in the series on FLUAV-GFP [5], the viability at 0.01 µM came to 50%, the viability at 0.02 µM was 51%, the viability at 0.05 µM turned out to be 66% and the viability at 0.15 µM turned out to be 68%. Further, the viability at 0.44 µM in the series on FLUAV-GFP [5] amounted to 76%. In the series on RVFV-RFP [6], the “RVFV-mediated RFP expression” value is reported as “inhibited RVFV-mediated RFP expression at non-cytotoxic concentrations”. In the series on RVFV-RFP [7], the 50% effective concentration (EC50) came out at 430 ± 100 nM. Besides, in the series “in vitro”, the CC50 was greater than 30000 nM. For the same compound, the “EV1 production in RPE cells (plaque assay)” value (from here on “EV1 production in RPE cells”) in the series on EV1 [8] was “lowered the production of EV1”. Besides, the EC50 with RVFV amounted to 100 ± 20 nM. Further, the EC50 with HSV-2 [9] was 30 ± 10 nM. Moreover, in the series with FLUAV, the EC50 was 130 ± 50 nM. Also, the “HSV-2 production in RPE cells (plaque assay)” value (from here on “HSV-2 production in RPE cells”) with HSV-2 [10] is “lowered the production of HSV-2”. Moreover, the EC50 in the series with HMPV-GFP [11] is 140 ± 50 nM. Moreover, the EC50 with FLUAV-GFP [12] was determined as 120 ± 30 nM. Also, the “Initial screening: rescue of EV1-infected cells” value with EV1 [13] is recorded as “rescued cells from virus-mediated death”. For the same compound, in the series with EV1 [14], the EC50 stood at 120 ± 40 nM. Besides, in the series on HSV-2 [15], the “Initial screening: rescue of HSV-2-infected cells” value was “rescued cells from virus-mediated death” and the “SI (CC50/EC50)” value is given as 37. In the series on HMPV-GFP [16], the “Initial screening: HMPV-mediated GFP expression” value is reported as “lowered GFP expression without detectable cytotoxicity” and the “SI (CC50/EC50)” value amounted to 10. Moreover, in series [17], the viability at 24 h, 0.01 μM was determined as 72%; the viability at 24 h, 0.02 μM was determined as 80%; the viability at 24 h, 0.05 μM was found to be 76%; the viability at 24 h, 0.15 μM turned out to be 76%. Also, the viability at 24 h, 0.44 μM in [17] is 80%.
As for `Nc1nc(O)c2ncn(COC(CO)CO)c2n1` [Ganciclovir], the CC50 in the series “in vitro” was greater than 30000 nM. For the same compound, in the series on HSV-2 [9], the EC50 worked out at 40 ± 10 nM. Moreover, the “HSV-2 production in RPE cells” value in the series with HSV-2 [10] is “lowered the production of HSV-2”. Besides, in the series with HSV-2 [15], the “Initial screening: rescue of HSV-2-infected cells” value was “rescued cells from virus-mediated death”.
As to `COC(=O)C[C@](O)(CCCC(C)(C)O)C(=O)O[C@@H]1C(OC)=C[C@]23CCCN2CCc2cc4c(cc2[C@H]13)OCO4` [Homoharringtonine], the CC50 in the series “in vitro” is greater than 30000 nM. The “EV1 production in RPE cells” value in the series on EV1 [8] is on record as “lowered the production of EV1”. Also, the “Initial screening: rescue of EV1-infected cells” value in the series on EV1 [13] is reported as “rescued cells from virus-mediated death”. The EC50 in the series with EV1 [14] amounted to 140 ± 30 nM.
On to `O=C(Nc1ccc([N+](=O)[O-])cc1Cl)c1cc(Cl)ccc1O` [Niclosamide], for which, in “in vitro”, the CC50 came out at 1310 ± 20 nM. The EC50 with HSV-2 [9] is 430 ± 40 nM. In addition, in the series on HSV-2 [10], the “HSV-2 production in RPE cells” value was “lowered the production of HSV-2”. In addition, in the series on HSV-2 [15], the “Initial screening: rescue of HSV-2-infected cells” value is “rescued cells from virus-mediated death” and the “SI (CC50/EC50)” value turned out to be 3.
In the case of `COC1=CC(c2cc3ccccc3[nH]2)=N/C1=C\c1[nH]c(C)cc1C` [Obatoclax], in the series with FLUAV-GFP [4], the “Initial screening: FLUAV-mediated GFP expression” value is “lowered GFP expression without detectable cytotoxicity” and the “SI (CC50/EC50)” value was 31. Further, in the series on FLUAV-GFP [5], the viability at 0.01 µM was 60%, the viability at 0.02 µM is 72%, the viability at 0.05 µM worked out at 80% and the viability at 0.15 µM is 90%. Also, in the series on FLUAV-GFP [5], the viability at 0.44 µM turned out to be 76%. The “RVFV-mediated RFP expression” value in the series on RVFV-RFP [6] was “inhibited RVFV-mediated RFP expression at non-cytotoxic concentrations”. The EC50 in the series on RVFV-RFP [7] is 320 ± 90 nM. The “EV1 production in RPE cells” value with EV1 [8] was “lowered the production of EV1”. Moreover, the EC50 in the series with RVFV came out at 40 ± 10 nM. Moreover, the EC50 in the series with HSV-2 [9] was 100 ± 20 nM. Also, the EC50 with FLUAV came to 40 ± 10 nM. Also, in the series on HSV-2 [10], the “HSV-2 production in RPE cells” value is recorded as “lowered the production of HSV-2”. Besides, the EC50 in the series on HMPV-GFP [11] was determined as 120 ± 20 nM. Further, the EC50 with FLUAV-GFP [12] was 100 ± 10 nM. For the same compound, in the series on EV1 [13], the “Initial screening: rescue of EV1-infected cells” value is listed as “rescued cells from virus-mediated death” and the “SI (CC50/EC50)” value was 25. Moreover, the EC50 in the series with EV1 [14] amounted to 120 ± 10 nM. Moreover, in the series on HSV-2 [15], the “Initial screening: rescue of HSV-2-infected cells” value was “rescued cells from virus-mediated death” and the “SI (CC50/EC50)” value amounted to 12. Also, the “Initial screening: HMPV-mediated GFP expression” value in the series on HMPV-GFP [16] is “lowered GFP expression without detectable cytotoxicity”. For the same compound, in [17], the viability at 24 h, 0.01 μM worked out at 81%; the viability at 24 h, 0.02 μM amounted to 77%; the viability at 24 h, 0.05 μM came to 78%; the viability at 24 h, 0.15 μM came to 81%. In addition, in series [17], the viability at 24 h, 0.44 μM was determined as 77%.
As for `Cc1ccc(C(=O)Nc2ccc(S(=O)(=O)O)c3cc(S(=O)(=O)O)cc(S(=O)(=O)O)c23)cc1NC(=O)c1cccc(NC(=O)Nc2cccc(C(=O)Nc3cc(C(=O)Nc4ccc(S(=O)(=O)O)c5cc(S(=O)(=O)O)cc(S(=O)(=O)O)c45)ccc3C)c2)c1` [Suramin], the “SI (CC50/EC50)” value in the series with HIV-1 [1] and in the series on HIV-1 [1] (listed as suramin) was greater than 375 each time. In [2], this compound came in with a CC50 at 24 h greater than 30000 nM. Moreover, the EC50 with HIV-1 [3] is 80 ± 30 nM.

As a reminder, the EC50 is the midpoint of the concentration-response curve. For orientation: viability means a read-out of living cells in per cent, often relative to untreated cells.
